For 14 molecules, IC50 and melting point results are on record in US6426352B1, “Sulfonamide inhibitors of farnesyl-protein transferase” (Schering Corporation, priority 1997, dated 2002).

One may read the IC50 as the concentration that gives 50% inhibition. Lower therefore signals greater potency in that assay. In general, melting point refers to the temperature, or range, at which the solid turns liquid.

The structures appear in SMILES notation.

The target of data set [1] is T1, partially purified rat brain farnesyl protein transferase (FPT) (Rattus norvegicus, UniProt Q02293+Q04631).
T1 construct: partially purified rat brain farnesyl protein transferase (FPT); from tissue; host or cells: rat brain
Nature of the data set: In vitro enzyme assay: inhibition of Ras-CVLS farnesylation by farnesyl protein transferase (H-ras FPT). It counts as biochemical. As for the experimental part: 1. In vitro enzyme assays: FPT IC50 (inhibition of farnesyl protein transferqase, in vitro enzyme assay) are determined by the methods disclosed in […] or WO 95/10516.

Data set [2] concerns Ras processing in COS cells. Nature of the data set: Cell-based assay: COS cells activity, inhibition of Ras processing. As for the experimental part: 2. Cell-based assay. COS IC50 values refer to the COS cells activity inhibition of Ras processing, are determined by the methods disclosed in […] or WO 95/10516.

The molecule `O=S(=O)(N1CCC(C2c3ncc(Br)cc3CCc3cc(Cl)cc(Br)c32)CC1)C(F)(F)F` (single isomer, unassigned; (+)) [Example 9, (+)-4-(3,10-Dibromo-8-chloro-11-dihydro-5H-benzo[5,6]cyclohepta[1,2-b]pyridin-11-yl)-1-(trifluoromethylsulfonyl)pipiridine] yielded a melting point of 111 to 112 °C. Moreover, it took 34 nM to reach half-maximal inhibition in data set [1] (IC50).
`O=S(=O)(c1ccc(-c2ccon2)s1)N1CCC([C@H]2c3ncc(Br)cc3CCc3cc(Cl)cc(Br)c32)CC1` [Example 14, (+)-4-(3,10-Dibromo-8-chloro-6,11-dihydro-5H-benzo[5,6]cyclohepta[1,2-b]pyridin-11(R)-yl)-1-[(5-(3-isoxazolyl)-2-thienyl]sulfonyl]pipiridine] returned an IC50 in data set [1] of 276 nM.
Turning to `CCCS(=O)(=O)N1CCC(C2c3ncc(Br)cc3CCc3cc(Cl)cc(Br)c32)CC1` (single isomer, unassigned; (+)) [Example 6, (+)-4-(3,10-Dibromo-8-chloro-11-dihydro-5H-benzo[5,6]cyclohepta[1,2-b]pyridin-11-yl)-1-(propylsulfonyl)pipiridine], the melting point lay in the range of 97 to 98 °C. In data set [1], this molecule had an IC50 of 32 nM.
On to `O=S(=O)(c1ccccc1)N1CCC([C@H]2c3ncc(Br)cc3CCc3cc(Cl)cc(Br)c32)CC1` [Example 12, (+)-4-(3,10-Dibromo-8-chloro-6,11-dihydro-5H-benzo[5,6]cyclohepta[1,2-b]pyridin-11(R)-yl)-1-(phenylsulfonyl)pipiridine], for which inhibition in data set [1] was half-maximal at 179 nM (IC50).
With `CCS(=O)(=O)N1CCC(C2c3ncc(Br)cc3CCc3cc(Cl)cc(Br)c32)CC1` (single isomer, unassigned; (+)) [Example 5, (+)-4-(3,10-Dibromo-8-chloro-11-dihydro-5H-benzo[5,6]cyclohepta[1,2-b]pyridin-11-yl)-1-(ethylsulfonyl)pipiridine], the melting point was in the range of 202 to 203 °C. The molecule also came in with an IC50 in data set [1] of 15.4 nM.
In turn, `CS(=O)(=O)N1CCC(C2c3ncc(Br)cc3CCc3cc(Cl)cc(Br)c32)CC1` (single isomer, unassigned; (+)) [Example 4, (+)-4-(3,10-Dibromo-8-chloro-11-dihydro-5H-benzo[5,6]cyclohepta[1,2-b]pyridin-11-yl)-1-(methylsulfonyl)pipiridine] showed a melting point of 216 to 217 °C. For the same molecule, the IC50 in data set [1] is 7 nM. Besides, the IC50 in data set [2] was determined as 15 nM.
Regarding `CN(C)S(=O)(=O)N1CCC(C2c3ncc(Br)cc3CCc3cc(Cl)cc(Cl)c32)CC1` (single isomer, unassigned; (+)) [Example 2, (+)-4-(3-Bromo-8,10-dichloro-6,11-dihydro-5H-benzo[5,6,]cyclohepta[1,2-b]pyridin-11-yl)-N-N-dimethyl-1-piperidinesulfonamide], the melting point was 202 to 203 °C. Also, half-maximal inhibition in data set [1] (IC50) was put at 164 nM.
Consider `O=S(=O)(CC(F)(F)F)N1CCC(C2c3ncc(Br)cc3CCc3cc(Cl)cc(Br)c32)CC1` (single isomer, unassigned; (+)) [Example 10, (+)-4-(3,10-Dibromo-8-chloro-11-dihydro-5H-benzo[5,6]cyclohepta[1,2-b]pyridin-11-yl)-1-(trifluoroethylsulfonyl)pipiridine], for which the melting point lay within 174 to 175 °C. For the same molecule, in data set [1], the midpoint of inhibition, the IC50, lay at 89 nM.
For `C=CS(=O)(=O)N1CCC(C2c3ncc(Br)cc3CCc3cc(Cl)cc(Br)c32)CC1` (single isomer, unassigned; (+)) [Example 11, (+)-4-(3,10-Dibromo-8-chloro-11-dihydro-5H-benzo[5,6]cyclohepta[1,2-b]pyridin-11-yl)-1-(vinylsulfonyl)pipiridine], in data set [1], the concentration for half-maximal inhibition (IC50) is 32 nM.
`CCCCS(=O)(=O)N1CCC(C2c3ncc(Br)cc3CCc3cc(Cl)cc(Br)c32)CC1` (single isomer, unassigned; (+)) [Example 8, (+)-4-(3,10-Dibromo-8-chloro-11-dihydro-5H-benzo[5,6]cyclohepta[1,2-b]pyridin-11-yl)-1-(butylsulfonyl)pipiridine]: the melting point was in the range of 73 to 74 °C. In data set [1], the IC50 stood at 320 nM.
Consider `CC(C)S(=O)(=O)N1CCC(C2c3ncc(Br)cc3CCc3cc(Cl)cc(Br)c32)CC1` (single isomer, unassigned; (+)) [Example 7, (+)-4-(3,10-Dibromo-8-chloro-11-dihydro-5H-benzo[5,6]cyclohepta[1,2-b]pyridin-11-yl)-1-(isopropylsulfonyl)pipiridine], for which the melting point was in the range of 203 to 205 °C. The IC50 in data set [1] turned out to be 110 nM.
The corresponding values for `NS(=O)(=O)N1CCC(C2c3ncc(Br)cc3CCc3cc(Cl)cc(Cl)c32)CC1` (single isomer, unassigned; (+)) [Example 3, (+)-4-(3-Bromo-8,10-dichloro-6,11-dihydro-5H-benzo[5,6]cyclohepta[1,2-b]pyridin-11-yl)-1-(aminosulfonyl)piperidine] are 133 to 134 °C and 26 nM.
Take `Cn1cnc(S(=O)(=O)N2CCC([C@H]3c4ncc(Br)cc4CCc4cc(Cl)cc(Br)c43)CC2)c1` [Example 13, (+)-4-(3,10-Dibromo-8-chloro-6,11-dihydro-5H-benzo[5,6]cyclohepta[1,2-b]pyridin-11(R)-yl)-1-[(1-methyl-1H-imidazol-4-yl)sulfonyl]pipiridine]: in data set [1], the IC50 was determined as 85 nM.
Take `CS(=O)(=O)N1CCC(C2c3ncc(Br)cc3CCc3cc(Cl)cc(Cl)c32)CC1` (single isomer, unassigned; (+)) [Example 1, (+)-4-(3-Bromo-8,10-dichloro-6,11-dihydro-5H-benzo[5,6]cyclohepta[1,2-b]pyridin-11-yl)-1-(methylsulfonyl)pipiridine]: the melting point was 160 to 163 °C. The molecule further showed an IC50 in data set [1] of 8 nM. In data set [2], this molecule registered an IC50 of 420 nM.
